Results taken from BindingDB's records for doi:10.1111/cbdd.12457 (Universiti Kebangsaan Malaysia, Jalan Raja Muda Abdul Aziz, 2015).

Columns and labels:
[1] = biological target: T1, Phospholipase A2 group V (Homo sapiens, UniProt P39877); assay: sPLA2V Activity Assay; conditions: pH 7.5; 25 °C
T1 sequence (P39877 whole entry): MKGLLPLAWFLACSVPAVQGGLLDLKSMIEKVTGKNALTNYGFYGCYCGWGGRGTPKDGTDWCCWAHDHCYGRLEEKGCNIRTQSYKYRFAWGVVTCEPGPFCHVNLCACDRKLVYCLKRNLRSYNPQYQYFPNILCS
Description: Briefly, sn-2ester bond of the substrate 1,2-bis(heptanoylthio)-glycerophosphocholine was hydrolyzed by PLA2-V followed by the exposure of free thiols. These thiols activated the conversion of DTNB (5,5–dithio-bis-(2-nitrobenzoic acid) to 2-nitro-5-thiobenzoic acid, which was photometrically detected at 405 nm. After this, the assay proceeded in an aqueous buffer solution (pH 7.5) containing KCl (94 mM), CaCl2 (9 mM), Tris (24 mM), and Triton-X 100 ([…]). Before the assay was started, substrate and PLA2-V was resuspended in assay buffer whereas DTNB was dissolved in an aqueous solution of Tris-HCl (pH 8) yielding an enzyme and DTNB concentrations of 100 ng/mL and 87 BM, respectively. 96-well micro titre plates containing substrate solution, DTNB, and the respective test substance were used to carry out assays at room temperature.

[2] = biological target: T2, Prostaglandin G/H synthase 1 (Ovis aries, UniProt P05979); assay: Cyclooxygenase Assay; conditions: pH 8; 25 °C
T2 sequence (P05979 whole entry): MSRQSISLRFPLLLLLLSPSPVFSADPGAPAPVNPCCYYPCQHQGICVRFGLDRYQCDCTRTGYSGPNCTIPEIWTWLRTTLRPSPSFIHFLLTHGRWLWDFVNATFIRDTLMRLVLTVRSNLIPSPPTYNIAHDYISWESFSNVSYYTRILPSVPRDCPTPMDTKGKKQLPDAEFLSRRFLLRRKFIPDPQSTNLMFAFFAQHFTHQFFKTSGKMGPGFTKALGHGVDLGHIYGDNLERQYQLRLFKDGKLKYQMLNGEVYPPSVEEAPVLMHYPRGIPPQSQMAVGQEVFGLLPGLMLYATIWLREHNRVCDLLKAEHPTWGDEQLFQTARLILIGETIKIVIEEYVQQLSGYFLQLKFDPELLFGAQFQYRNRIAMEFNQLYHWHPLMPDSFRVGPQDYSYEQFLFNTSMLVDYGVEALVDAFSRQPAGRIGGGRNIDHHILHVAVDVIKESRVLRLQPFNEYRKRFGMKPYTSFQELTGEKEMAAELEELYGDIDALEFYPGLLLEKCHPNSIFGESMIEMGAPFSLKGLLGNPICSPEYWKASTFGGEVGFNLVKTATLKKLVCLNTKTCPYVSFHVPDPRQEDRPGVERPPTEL
Description: (§1) 100 mM Tris HCl buffer, pH 8.0 containing 1 µM heme and COX-1 (ovine) or COX-2(human recombinant), which was preincubated for 10 min in a water bath at 37 °C was used for reaction mixture preparation. Addition of 10 µL arachidonic acid to the reaction mixture (final concentration 100 µM) was used to initiate reaction. After 2 min reaction was stopped by addition of 1 M HCl. PGE2 in the reaction mixture was determined using ELISA method. 100 mM potassium phosphate buffer (pH 7.4) was used to dilute the DMSO stock solutions of the test compounds to the desired concentration. This reaction mixture was transferred to a 96-well platethat was precoated with a mouse anti-rabbit IgG. Tracer prostaglandin acetylcholine esterase and primary antibody (mouse anti PGE2) were also added to the plates followed by overnight incubation at room temperature. After overnightincubation, reaction mixtures were pipetted out and the wells were washed with 10 mM potassium phosphate buffer containing 0.05% Twe

[3] = biological target: T3, Prostaglandin G/H synthase 2 (Homo sapiens, UniProt P35354); assay: Cyclooxygenase Assay; conditions: pH 8; 25 °C
T3 sequence (P35354 whole entry): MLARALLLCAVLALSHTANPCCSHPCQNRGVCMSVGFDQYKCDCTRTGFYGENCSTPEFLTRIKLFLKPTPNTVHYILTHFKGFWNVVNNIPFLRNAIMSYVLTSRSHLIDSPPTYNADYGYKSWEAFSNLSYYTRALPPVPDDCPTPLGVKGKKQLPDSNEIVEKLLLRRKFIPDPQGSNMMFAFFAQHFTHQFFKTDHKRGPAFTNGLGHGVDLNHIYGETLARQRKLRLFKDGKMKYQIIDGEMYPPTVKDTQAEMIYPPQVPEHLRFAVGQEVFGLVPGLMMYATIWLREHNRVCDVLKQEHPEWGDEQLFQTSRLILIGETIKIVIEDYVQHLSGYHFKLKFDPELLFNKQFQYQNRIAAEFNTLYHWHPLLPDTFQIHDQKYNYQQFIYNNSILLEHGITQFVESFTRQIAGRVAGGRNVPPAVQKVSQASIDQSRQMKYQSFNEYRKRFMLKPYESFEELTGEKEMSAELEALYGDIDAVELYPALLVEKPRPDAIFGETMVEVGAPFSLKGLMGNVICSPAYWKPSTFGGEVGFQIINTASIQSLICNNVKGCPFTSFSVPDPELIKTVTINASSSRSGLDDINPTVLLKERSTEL
Description: as §1

SMILES	IC50 [1] [µM]	IC50 [2] [µM]	IC50 [3] [µM]
CN(C)c1ccc(/C=C/C(=O)c2ccc3c(c2)OCCO3)c2ccccc12 [1-(2,3-Dihydro-benzo[1,4]dioxin-6-yl)-3-(4-dimethylamino-naphthalen-1-yl)-propenone (4)]	32.2	7.06	24.5
COc1cc2ccccc2c(/C=C/C(=O)c2cc3ccccc3o2)c1OC [1-Benzofuran-2-yl-3-(2,3-dimethoxy-naphthalen-1-yl)-propenone (3)]	12.7	12.5	12.2
COc1ccc2c(OC)ccc(/C=C/C(=O)c3cc4ccccc4o3)c2c1 [1-Benzofuran-2-yl-3-(4,7-dimethoxy-naphthalen-1-yl)-propenone (2)]	27.8	15	19.1
COc1cc2ccccc2c(C2CC(c3ccc4c(c3)OCCO4)=NN2C(N)=S)c1OC (stereo unspecified) [3-(2,3-Dihydro-benzo[1,4]dioxin-6-yl)-5-(2,3-dimethoxy-naphthalen-1-yl)-4,5-dihydro-pyrazole-1-carbothioic acid amide (5a)]	19.2	3.42	17.8
COc1cc2ccccc2c(C2CC(c3ccc4c(c3)OCCO4)=NN2C(=O)Nc2ccc(Cl)cc2)c1OC (stereo unspecified) [3-(2,3-Dihydro-benzo[1,4]dioxin-6-yl)-5-(2,3-dimethoxy-naphthalen-1-yl)-4,5-dihydropyrazole-1-carboxylic acid (4-chloro-phenyl)-amide (5b)]	17.3	1.17	12.3
COc1ccc2c(OC)ccc(C3CC(c4ccc5c(c4)OCCO5)=NN3C(N)=S)c2c1 (stereo unspecified) [3-(2,3-Dihydro-benzo[1,4]dioxin-6-yl)-5-(4,7-dimethoxy-naphthalen-1-yl)-4,5-dihydro-pyrazole-1-carbothioic acid amide (6a)]	7.12	2.82	12.6
COc1ccc2c(OC)ccc(C3CC(c4ccc5c(c4)OCCO5)=NN3C(=O)Nc3ccc(Cl)cc3)c2c1 (stereo unspecified) [3-(2,3-Dihydro-benzo[1,4]dioxin-6-yl)-5-(4,7-dimethoxy-naphthalen-1-yl)-4,5-dihydropyrazole-1-carboxylic acid (4-chloro-phenyl)-amide (6b)]	5.12	0.94	12
CN(C)c1ccc(C2CC(c3ccc4c(c3)OCCO4)=NN2C(N)=S)c2ccccc12 (stereo unspecified) [3-(2,3-Dihydro-benzo[1,4]dioxin-6-yl)-5-(4-dimethylamino-naphthalen-1-yl)-4,5-dihydropyrazole-1-carbothioic acid amide (4a)]	22.2	1.12	13.2
CN(C)c1ccc(C2CC(c3ccc4c(c3)OCCO4)=NN2C(=O)Nc2ccc(Cl)cc2)c2ccccc12 (stereo unspecified) [3-(2,3-Dihydro-benzo[1,4]dioxin-6-yl)-5-(4-dimethylamino-naphthalen-1-yl)-4,5-dihydropyrazole-1-carboxylic acid (4-chloro-phenyl)-amide (4b)]	17.2	0.44	9.72
COc1cc2ccccc2c(C2CC(c3cc4ccccc4o3)=NN2C(N)=S)c1OC (stereo unspecified) [3-Benzofuran-2-yl-5-(2,3-dimethoxy-naphthalen-1-yl)-4,5-dihydro-pyrazole-1-carbothioic acid amide (3a)]	9.17	8.06	10.3
COc1cc2ccccc2c(C2CC(c3cc4ccccc4o3)=NN2C(=O)Nc2ccc(Cl)cc2)c1OC (stereo unspecified) [3-Benzofuran-2-yl-5-(2,3-dimethoxy-naphthalen-1-yl)-4,5-dihydro-pyrazole-1-carboxylic acid(4-chloro-phenyl)-amide (3b)]	8.46	0.99	5.02
COc1ccc2c(OC)ccc(C3CC(c4cc5ccccc5o4)=NN3C(N)=S)c2c1 (stereo unspecified) [3-Benzofuran-2-yl-5-(4,7-dimethoxy-naphthalen-1-yl)-4,5-dihydro-pyrazole-1-carbothioic acid amide (2a)]	21.1	7.22	12.3
COc1ccc2c(OC)ccc(C3CC(c4cc5ccccc5o4)=NN3C(=O)Nc3ccc(Cl)cc3)c2c1 (stereo unspecified) [3-Benzofuran-2-yl-5-(4,7-dimethoxy-naphthalen-1-yl)-4,5-dihydro-pyrazole-1-carboxylic acid(4-chloro-phenyl)-amide (2b)]	14.5	2.14	11.1
CN(C)c1ccc(C2CC(c3cc4ccccc4o3)=NN2C(N)=S)c2ccccc12 (stereo unspecified) [3-Benzofuran-2-yl-5-(4-dimethylamino-naphthalen-1-yl)-4,5-dihydro-pyrazole-1-carbothioic acid amide (1a)]	35.4	4.53	14.5
CN(C)c1ccc(C2CC(c3cc4ccccc4o3)=NN2C(=O)Nc2ccc(Cl)cc2)c2ccccc12 (stereo unspecified) [3-Benzofuran-2-yl-5-(4-dimethylamino-naphthalen-1-yl)-4,5-dihydro-pyrazole-1-carboxylic acid(4-chloro-phenyl)-amide (1b)]	22.2	1.87	9.1
C[C@@H]1C[C@H]2[C@@H]3CCC4=CC(=O)C=C[C@]4(C)[C@@]3(F)[C@@H](O)C[C@]2(C)[C@@]1(O)C(=O)CO [dexamethasone (tetramethyl-rhodamine conjugated )]	0.62	–	–
